Numbering of substitutions follows the chain as printed. Like-named read-outs stand apart in the source and are kept apart here.
What was measured:
[1] = system: prostate-specific antigen (PSA); assay: Secreted PSA production in LNCaP cells; type: cell-based; conditions: Homo sapiens, read-out: IC50, secreted PSA levels
Procedure: To further validate compounds as AR inhibitors, we tested their activity by quantifying the effect on the production of endogenous prostate-specific antigen (PSA) in PCa cell lines. PSA is an AR-regulated serine protease and is widely used as a biomarker for PCa.
(§1) LNCaP cells incorporating an AR2PB-eGFP reporter construct (2 × probasin) are previously described. eGFP and secreted PSA assays were performed as described. The mammalian two-hybrid assay was performed in PC3 cells by co-transfection of 15 ng pA-AR or pB-AR plasmids, with 12.5 ng PG5-NLuc reporter. PC3_iV7_3TKNluc or PC3_iNluc cells were seeded in DMEM +5% CSS at 5000 cells/well for 24 h, followed by adding doxycycline/compounds (18 h) and luminescence measurement. LNCaP and 22rv1 cells were starved in RPMI + CSS (48 h) before cell viability tests using the same conditions as above, followed by 30 μL/well PrestoBlue™ Reagent (1 h) and fluorescence measurement (TECAN F200).

AR-V7 = target: T1, AR-V7 (Homo sapiens, UniProt P10275); assay: AR-V7 transcriptional activity, doxycycline-inducible AR-V7 with ARR3tk-nanoLuciferase reporter in PC3 cells; type: cell-based; conditions: for IC50: PC3 doxycycline-inducible AR-V7, ARR3tk-nanoLuciferase reporter, read-out: IC50 for the inhibition of the AR-V7 transcription; for inhibition at 10 µM: PC-3, Supplementary Table 1, read-out: Inhibition Dox-V7 (10 μM)
T1 construct: expressed in transfected cells
T1 sequence (P10275 1-644 isoform P10275-3): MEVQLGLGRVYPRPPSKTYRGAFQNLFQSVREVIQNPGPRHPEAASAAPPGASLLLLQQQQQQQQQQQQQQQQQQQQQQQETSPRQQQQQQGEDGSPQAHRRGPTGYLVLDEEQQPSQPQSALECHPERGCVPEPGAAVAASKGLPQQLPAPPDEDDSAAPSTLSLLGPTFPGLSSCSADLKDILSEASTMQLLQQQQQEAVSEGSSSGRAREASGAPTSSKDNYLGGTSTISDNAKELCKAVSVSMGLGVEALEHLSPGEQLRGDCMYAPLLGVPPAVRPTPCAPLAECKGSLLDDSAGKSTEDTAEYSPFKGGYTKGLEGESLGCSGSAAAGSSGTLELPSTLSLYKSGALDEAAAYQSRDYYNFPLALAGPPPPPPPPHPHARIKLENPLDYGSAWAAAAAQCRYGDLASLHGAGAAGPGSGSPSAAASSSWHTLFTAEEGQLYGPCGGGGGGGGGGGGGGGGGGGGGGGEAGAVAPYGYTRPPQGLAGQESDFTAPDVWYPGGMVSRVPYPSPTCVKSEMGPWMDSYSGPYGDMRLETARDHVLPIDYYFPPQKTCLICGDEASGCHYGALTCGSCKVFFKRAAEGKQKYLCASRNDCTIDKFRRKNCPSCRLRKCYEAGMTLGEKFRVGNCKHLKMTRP
Excerpt: (§2) Compounds were first screened for their inhibition of AR-V7 transcriptional activity. To do so, we created a PC3 cell-based population that stably encodes (i) a doxycycline-inducible AR-V7 cDNA sequence (pLIX402 tet-inducible promoter, puromycin selection), and (ii) the ARR3tk-nanoLuciferase reporter construct. […] This allowed the screening of the compounds without using the error-prone method of transiently transfecting V7 and reporter constructs. The inhibition efficacy of compounds was measured using doxycycline treatment along with an increasing dose of compounds. From this screen, a panel of compounds was identified with some anti-dimerization activity (Supplementary Table S1). […] To rule out direct effects of the compounds on luciferase expression or PC3 cell viability, we used a PC3-dox inducible luciferase cell line in parallel.
as §1

AR-LBD = target: T2, AR-LBD (Rattus norvegicus, UniProt P15207); assay: Androgen displacement assay (Polar Screen Androgen Receptor Competitor Green Assay Kit, FluormoneAL Green); type: binding; conditions: for % Displacement (1 μM) / % Displacement (10 μM): Table 1
T2 construct: displace a fluorescent-tagged androgenic ligand (FluormoneAL Green) from the AR-LBD; purchased
T2 sequence (P15207 651-882 limits assumed): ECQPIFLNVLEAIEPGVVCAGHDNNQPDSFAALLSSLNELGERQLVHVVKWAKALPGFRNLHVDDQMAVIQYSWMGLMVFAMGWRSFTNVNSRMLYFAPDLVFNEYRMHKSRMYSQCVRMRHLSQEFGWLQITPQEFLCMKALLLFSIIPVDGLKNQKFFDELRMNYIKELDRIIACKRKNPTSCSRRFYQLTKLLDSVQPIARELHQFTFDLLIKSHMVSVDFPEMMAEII
Procedure: Androgen displacement was assessed with the Polar Screen Androgen Receptor Competitor Green Assay Kit as per the instructions of the manufacturer.

[2] = Metabolic stability in human microsomes; type: in vitro ADME
Excerpt: We then tested the metabolic stability of these molecules using human microsomes. […] This could explain the lower potency of this compound in cell growth assays, as it is metabolized quickly in the media.

22rv1 cells = assay: Cell viability (PrestoBlue), 22rv1; type: cell-based; conditions: for growth inhibition of 22rv1 cell line: result in words
Procedure: (§3) VPC-17160 and VPC-17281 were further evaluated for their potential to inhibit the growth of prostate cancer cell lines LNCaP (AR-FL dependent) and 22rv1 (AR-V7 dependent).
as §1

LNCaP cells = assay: Cell viability (PrestoBlue), LNCaP; type: cell-based; conditions: for growth inhibition of LNCaP cell line: result in words
Procedure: as §3, §1

full-length AR [3] = target: T3, full-length AR (Homo sapiens, UniProt P10275, T878A); assay: eGFP AR transcriptional assay in LNCaP cells; type: cell-based; conditions: for eGFP FL (12 μM) / IC50: LNCaP-eGFP; for eGFP FL (12 μM): Supplementary Table 1; for inhibition of AR-FL expression at 12 μM: result in words; for IC50: read-out: estimated IC50, AR-FL transcriptional activity (eGFP)
T3 construct: endogenous in cells; host or cells: LNCaP with AR2PB-eGFP reporter
T3 sequence (P10275 1-920 T878A): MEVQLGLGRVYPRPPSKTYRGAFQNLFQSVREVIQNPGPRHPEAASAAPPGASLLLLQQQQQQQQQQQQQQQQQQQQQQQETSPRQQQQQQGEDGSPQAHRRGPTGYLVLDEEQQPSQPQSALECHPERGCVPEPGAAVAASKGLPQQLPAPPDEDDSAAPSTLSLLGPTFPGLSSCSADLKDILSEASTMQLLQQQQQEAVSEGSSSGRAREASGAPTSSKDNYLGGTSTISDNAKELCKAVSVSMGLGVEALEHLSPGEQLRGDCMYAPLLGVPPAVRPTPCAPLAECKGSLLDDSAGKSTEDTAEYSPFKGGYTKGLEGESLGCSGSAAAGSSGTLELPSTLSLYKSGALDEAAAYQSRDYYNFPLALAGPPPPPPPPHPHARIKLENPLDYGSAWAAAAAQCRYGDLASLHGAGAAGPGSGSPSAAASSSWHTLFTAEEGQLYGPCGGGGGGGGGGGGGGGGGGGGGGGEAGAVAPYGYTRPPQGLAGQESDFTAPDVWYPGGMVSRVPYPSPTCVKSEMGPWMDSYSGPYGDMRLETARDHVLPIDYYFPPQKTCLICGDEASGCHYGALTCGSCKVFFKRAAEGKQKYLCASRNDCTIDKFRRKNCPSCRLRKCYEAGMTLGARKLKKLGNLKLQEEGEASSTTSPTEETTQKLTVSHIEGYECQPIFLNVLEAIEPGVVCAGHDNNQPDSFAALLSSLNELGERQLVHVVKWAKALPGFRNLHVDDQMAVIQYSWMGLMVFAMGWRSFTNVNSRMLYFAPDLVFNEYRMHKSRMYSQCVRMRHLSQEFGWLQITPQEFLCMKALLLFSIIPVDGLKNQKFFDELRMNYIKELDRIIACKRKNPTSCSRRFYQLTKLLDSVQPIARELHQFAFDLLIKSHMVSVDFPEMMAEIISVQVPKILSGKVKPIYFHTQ
Procedure: In addition, these compounds were also tested for their ability to inhibit full-length AR transcriptional activity in LNCaP cells using an enhanced green fluorescent protein (eGFP) AR transcriptional assay, where the expression of eGFP is under the direct control of an androgen-responsive probasin-derived promoter.
as §1

PC3 cell line = assay: Activity in the PC3 cell line; type: cell-based; conditions: off-target effects; result in words
full-length AR [4] = target: T4, full-length AR (Homo sapiens, UniProt P10275); assay: Mammalian two-hybrid (M2H) AR dimerization assay in PC3 cells; type: cell-based; conditions: result in words
T4 construct: Full-length AR cDNA were cloned using Polymerase Incomplete Primer Extension; expressed in transfected cells; host or cells: PC3 (transient co-transfection of pA-AR, pB-AR and PG5-NLuc)
T4 sequence (P10275 1-920): T3 sequence (P10275 1-920 T878A) with A878T
Procedure: Next, the dimerization of full-length AR was assessed by a mammalian two-hybrid (M2H, [30]) assay, where target proteins were fused with Gal4-DBD or VP16 domains. […] High concentrations of VPC-17005 (>20 μM) were required for significant reduction in AR and AR-V7 homo-dimerization.
Figure 3 Anti-dimerization effects of VPC-17160 and VPC-17281 at 20 μM concentraction. PC3 cells were co-transfected with plasmids encoding pA-AR and pB-AR and pG5-NLuc-Gal4 specific reporter. Cells were treated with 0.1% DMSO control, VPC-17160, VPC-17281, or VPC-17005 followed by Nanoluciferase measurement. p < 0.05 (*), p < 0.01 (**) were considered statistically significant (two-tailed t-test). Two-tailed t-test for VPC-17005 vs. 17160 p < 0.05; VPC-17005 vs. VPC-17281 p < 0.05.
Full-length human AR (hARWT) was encoded on pcDNA3.1 expression plasmid. […]
as §1, with “The mammalian two-hybrid assay was performed in PC3 cells by co-transfection of 15 ng pA-AR or pB-AR plasmids, with 12.5 ng PG5-NLuc reporter.” left out

[5] = system: PC3-dox inducible luciferase cell line; assay: Nanoluc counterscreen in PC3-dox inducible luciferase cell line; type: cell-based; conditions: Supplementary Table 1
Excerpt: as §2
as §1, with “The mammalian two-hybrid assay was performed in PC3 cells by co-transfection of 15 ng pA-AR or pB-AR plasmids, with 12.5 ng PG5-NLuc reporter.” left out

[6] = microsomal stability, Table 1, read-out: Half-Life
[7] = read-out: half-life in microsomes (T1/2)

Row | IC50 [1] [µM] | IC50 (AR-V7) [µM] | inhibition at 10 µM (AR-V7) [%] | % Displacement (1 μM) (AR-LBD) [%] | % Displacement (10 μM) (AR-LBD) [%] | hormone displacement at 50 μM (AR-LBD; high concentrations (50 μM), result in words) | half-life [2, 6] [min] | half-life [2, 7] [min] | IC50 (22rv1 cells; Homo sapiens, 22rv1 (AR-V7 dependent), read-out: IC50, cell growth) [µM] | IC50 (LNCaP cells; Homo sapiens, LNCaP (AR-FL dependent), read-out: IC50, cell growth) [µM] | eGFP FL (12 μM) (full-length AR [3]) | inhibition of AR-FL expression at 12 μM (full-length AR [3]) | IC50 (full-length AR [3]) [µM] | effect on the PC3 cell line (PC3 cell line) | reduction of dimerization at 20 μM (full-length AR [4]) | SMILES | growth inhibition of 22rv1 cell line (22rv1 cells) | growth inhibition of LNCaP cell line (LNCaP cells) | Nanoluc Counterscreen (10 μM) [5] [%]
1 | 6 | 6 | 70 | 0 | 0 | no significant hormone displacement | 90 | > 90 | 10 | 25 | 100 | significant inhibition | 5 | some activity | full reduction of dimerization | CC(O)(CNC(=O)C=Cc1ccnc2ccccc12)c1ccsc1 (stereo not shown) [VPC-17281] | inhibited the growth | inhibited the growth | 10
2 | – | – | – | – | – | – | > 1000 | – | – | – | – | – | – | – | – | CNC(=O)c1ccc(N2C(=S)N(c3ccc(C#N)c(C(F)(F)F)c3)C(=O)C2(C)C)cc1F [Enzalutamide, reference compound] | – | – | –
3 | 2 | 6 | 70 | 10 | 29 | – | 3 | 3 | – | – | 76 | significant inhibition | 2 | no effect | full reduction of dimerization | O=C(NCc1cccc2ccccc12)NCC(O)(c1cccs1)c1cccs1 [VPC-17160] | inhibited the growth | inhibited the growth | 20

Source: publication PMC7958344, “Development of Novel Inhibitors Targeting the D-Box of the DNA Binding Domain of Androgen Receptor” (International Journal of Molecular Sciences, 2021)
